Reference: the supplement of paper PMC10307832

What was measured:
Assay in all cases: relative viability (nuclei count vs DMSO), 5 days (fraction); higher = more cells survive
[1] = compound: CN(c1ncccc1CNc1nc(Nc2ccc3c(c2)CC(=O)N3)ncc1C(F)(F)F)S(C)(=O)=O + COc1cccc2cc(-c3nc([C@H]4CC[C@H](C(=O)O)CC4)n4ncnc(N)c34)[nH]c12 [OSI-027] (partner 0.5 µM)
How it was run: (§1)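 Dosing by pin tool came one day after lung cancer cell lines were seeded in 1536-well plates, using either one drug or a fixed anchor-drug dose plus five library-drug doses (not always all listed) in √10 steps. After 5 days, nuclei were counted on 4× images. Relative viability is treated-well nuclei count divided by vehicle-well nuclei count, and values are medians of duplicate plates.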

[2] = compound: CN(c1ncccc1CNc1nc(Nc2ccc3c(c2)CC(=O)N3)ncc1C(F)(F)F)S(C)(=O)=O + CS(=O)(=O)CCNCc1ccc(-c2ccc3ncnc(Nc4ccc(OCc5cccc(F)c5)c(Cl)c4)c3c2)o1 [Lapatinib] (partner 2 µM)
How it was run: as §1

[3] = compound: CN(c1ncccc1CNc1nc(Nc2ccc3c(c2)CC(=O)N3)ncc1C(F)(F)F)S(C)(=O)=O + C[C@]1(O)C[C@@H](c2nc(-c3ccc4ccc(-c5ccccc5)nc4c3)c3c(N)nccn32)C1 [Linsitinib] (partner 1 µM)
How it was run: as §1

[4] = compound: CN(c1ncccc1CNc1nc(Nc2ccc3c(c2)CC(=O)N3)ncc1C(F)(F)F)S(C)(=O)=O + Cc1nc(NC(=O)N2CCC[C@H]2C(N)=O)sc1-c1ccnc(C(C)(C)C(F)(F)F)c1 [Alpelisib] (partner 2 µM)
How it was run: as §1

Cell Line	relative viability ([1]; first compound 0.01 µM)	relative viability ([1]; first compound 0.03162 µM)	relative viability ([1]; first compound 0.1 µM)	relative viability ([1]; first compound 0.3162 µM)	relative viability ([1]; first compound 1 µM)	relative viability ([2]; first compound 0.01 µM)	relative viability ([2]; first compound 0.03162 µM)	relative viability ([2]; first compound 0.1 µM)	relative viability ([2]; first compound 0.3162 µM)	relative viability ([2]; first compound 1 µM)	relative viability ([3]; first compound 0.01 µM)	relative viability ([3]; first compound 0.03162 µM)	relative viability ([3]; first compound 0.1 µM)	relative viability ([3]; first compound 0.3162 µM)	relative viability ([3]; first compound 1 µM)	relative viability ([4]; first compound 0.01 µM)	relative viability ([4]; first compound 0.03162 µM)	relative viability ([4]; first compound 0.1 µM)	relative viability ([4]; first compound 0.3162 µM)	relative viability ([4]; first compound 1 µM)
HCC-78	0.378	0.399	0.36	0.421	0.353	1.09	0.748	0.708	0.713	0.329	0.654	0.578	0.425	0.439	0.486	0.368	0.407	0.285	0.361	0.31
HCC-366	0.786	1.01	0.846	0.996	0.973	1	1.11	1.05	1.06	0.971	0.488	0.913	0.591	0.576	0.508	0.35	0.471	0.455	0.389	0.309
HCC-827	0.765	0.775	0.821	0.799	0.759	0.186	0.149	0.215	0.177	0.182	0.999	0.915	0.93	0.905	0.914	1.02	1.07	1.03	1.01	0.942
HOP-62	0.956	0.804	0.743	0.825	0.731	1.06	1.1	1.02	1.09	0.903	0.843	1.09	1.06	0.786	0.933	0.909	1.25	1.06	0.84	0.772
IA-LM	–	–	–	–	–	0.884	0.82	0.887	0.608	0.56	0.6	0.54	0.583	–	0.599	0.631	0.884	0.637	0.649	0.688
LC-2-ad	0.874	0.851	0.905	0.827	0.758	1.12	0.958	1	0.864	0.756	0.85	0.784	0.862	0.786	0.847	0.789	0.714	0.883	0.902	0.877
LCLC-97TM1	0.512	0.524	0.42	0.458	0.576	–	0.658	0.841	0.752	0.516	–	0.226	0.167	0.216	0.152	–	0.246	0.229	0.246	0.161
LCLC-103H	0.497	0.399	0.422	0.448	0.424	–	–	–	–	–	1.1	1.1	0.983	0.977	0.88	1.04	0.982	0.868	0.872	0.897
LK-2	0.198	0.157	0.244	0.205	0.18	1.16	1.21	1.02	0.984	1	0.631	0.534	0.546	0.526	0.766	0.955	1.35	0.927	0.959	1.08
LOU-NH91	0.714	0.82	0.685	0.823	0.801	0.777	0.714	0.73	0.743	0.741	0.988	1.02	1.02	1.08	1.11	0.75	0.792	0.703	0.771	0.762
LU99A	0.284	0.279	0.27	0.277	0.352	0.971	1.19	1.01	1.17	1.08	0.582	0.552	0.609	0.537	0.656	0.48	0.62	0.525	0.588	0.577
LXF-289	0.806	0.807	0.707	0.641	0.762	0.949	0.883	0.9	0.925	0.89	1.03	1.03	0.95	0.947	0.936	1.05	1.07	1.07	0.988	0.947
NCI-H441	0.76	0.725	0.596	0.77	0.518	–	–	–	–	–	0.457	0.707	0.513	0.583	0.536	0.624	0.65	0.557	0.793	0.614
NCI-H522	0.717	0.703	0.726	0.742	0.798	–	–	–	–	–	–	–	–	–	–	–	–	–	–	–
NCI-H1299	–	–	–	–	–	1.03	0.949	1	0.988	0.972	1.06	1.05	0.961	0.976	0.986	1.05	1.02	1.01	1.04	1.05
NCI-H1648	0.28	0.237	0.266	0.25	0.24	–	–	–	–	–	–	–	–	–	–	–	–	–	–	–
NCI-H1650	0.64	0.727	0.701	0.612	0.645	0.78	0.9	0.805	–	0.592	–	–	–	–	–	–	–	–	–	–
NCI-H1703	–	–	–	–	–	1.05	1.13	1.27	1.41	1.01	0.692	0.647	0.756	0.836	0.637	0.329	0.419	0.321	0.345	0.294
NCI-H2170	0.672	0.695	0.679	0.791	0.752	0.263	0.254	0.267	–	0.276	–	–	–	–	–	0.762	0.874	0.862	–	0.786
NCI-H2342	0.579	0.614	0.617	0.519	0.57	–	–	–	–	–	–	–	–	–	–	–	–	–	–	–
SW 900	0.623	0.574	0.659	0.514	0.49	–	–	–	–	–	–	–	–	–	–	–	–	–	–	–
